According to patent US20230357139A1, “SMALL MOLECULE INHIBITORS OF BACTERIAL TOXINS” (Artizan Biosciences, Inc., priority 2020, published 2023):
pIC50: −log10 of the molar value.

What follows are compounds tested on recombinant BFT (rBFT) (assay: NFF-3 cleavage assay). Conditions: rBFT pre-incubated with compound 30 minutes at 37° C., then NFF-3 for 24 hours; read-out: NFF3 IC50.
Format: biochemical, B. fragilis
Procedure: A NFF-3 cleavage assay was used to test activity of recombinant BFT, before or after addition of various inhibitors. The NFF-3 cleavage assay was previously described by Goulas et al., PNAS, 2011, 108(5) 1856-1861, which is incorporated by reference herein in its entirety.
Initially, recombinant BFT (rBFT) (0.25, 0.5, 1, 2, 4, 8, or 16 μg/mL) was incubated at 37° C. with the fluorogenic substrate NFF-3 (Cayman Chemical) at a concentration of 2.5 μM, 5 μM, or 10 μM. After 18 hours, fluorescence was measured in a microplate fluorimeter.
Next, rBFT was pre-incubated with one or more test compounds at different concentrations for 30 minutes at 37° C. The rBFT-compound mixture was then added to NFF-3 and incubated for 24 hours at 37° C. Fluorescence was then measured in a microplate fluorimeter.

Structure (SMILES)	pIC50
CC(C)C[C@H](C(=O)NO)N(Cc1cccnc1)S(=O)(=O)c1ccc(C#N)cc1 [Example 47]	5.22
CC[C@H](C(=O)NO)N(Cc1cccnc1)S(=O)(=O)CCNC(=O)CSC [Example 70]	3.79
CC(=O)c1ccc(S(=O)(=O)N(Cc2cccnc2)[C@H](CC(C)C)C(=O)NO)cc1 [Example 38]	5.21
CCC(C)[C@H](C(=O)NO)N(Cc1cccnc1)S(=O)(=O)c1ccc(O)cc1 (some centres unmarked) [Example 36]	6.62
CCC[C@H](C(=O)NO)N(CCc1ccc2[nH]ccc2c1)S(=O)(=O)c1ccc(O)cc1 [Example 112]	< 5.00
CCC[C@@H](C(=O)NO)N(CCc1ccccn1)S(=O)(=O)c1ccc(O)cc1 [Example 78]	6.67
O=C(NO)[C@@H](Cc1cccs1)N(Cc1cccc(Cl)c1)S(=O)(=O)c1ccc(O)cc1 [Example 83]	6.28
O=C(NO)[C@@H](CO)N(Cc1cccnc1)S(=O)(=O)c1ccc(O)cc1 [Example 50]	6.29
CC[C@H](C(=O)NO)N(Cc1cccnc1)S(=O)(=O)c1ccc(O)cc1F [Example 57]	6.71
CC(C)CN(CC(=O)NO)S(=O)(=O)c1ccc(O)cc1 [Example 56]	5.34
O=C(NO)[C@@H](Cc1cccs1)N(Cc1ccc(OCCF)cc1)S(=O)(=O)c1ccc(O)cc1 [Example 100]	6.82
O=C(NO)[C@@H](Cc1cocn1)N(Cc1cccnc1)S(=O)(=O)c1ccc(O)cc1 [Example 67]	5.37
CC(C)[C@@H](C(=O)NO)N(Cc1ccccc1)S(=O)(=O)c1c(F)c(F)c(F)c(F)c1F [Example 72]	3.20
COc1ccc(C(C(=O)NO)N(Cc2ccc3[nH]ccc3c2)S(=O)(=O)c2ccc(O)cc2)cc1 (centres unmarked) [Example 93]	6.93
CCCC[C@H](C(=O)NO)N(Cc1cccnc1)S(=O)(=O)c1ccc(O)cc1 [Example 44]	6.89
COc1ccc(S(=O)(=O)N(Cc2cccnc2)[C@H](C(=O)NO)C(C)C)cc1 [Example 64]	5.08
COc1cccc(CN([C@H](Cc2cccs2)C(=O)NO)S(=O)(=O)c2ccc(O)cc2)c1 [Example 89]	6.73
COC[C@H](C(=O)NO)N(Cc1cccnc1)S(=O)(=O)c1ccc(O)cc1 [Example 53]	6.24
O=C(NO)[C@@H](Cc1cccs1)N(Cc1ccc(OC(F)(F)F)cc1)S(=O)(=O)c1ccc(O)cc1 [Example 77]	6.82
CC(C)C[C@H](C(=O)NO)N(Cc1cccnc1)S(=O)(=O)c1cccc(C(N)=O)c1 [Example 39]	4.10
CC(C)C[C@H](C(=O)NO)N(Cc1cccnc1)S(=O)(=O)c1ccc(C(=N)N)cc1 [Example 52]	4.56
CC(C)[C@@H](C(=O)NO)N(Cc1ccccc1)S(=O)(=O)c1cccc(C(F)(F)F)c1 [Example 69]	3.16

Structure (SMILES)	pIC50
O=C(NO)[C@@H](Cc1cccs1)N(Cc1ccc(Cl)cc1)S(=O)(=O)c1ccc(O)cc1 [Example 80]	6.54
CC(C)C[C@H](C(=O)NO)N(Cc1cccnc1)S(=O)(=O)c1ccc(NS(C)(=O)=O)cc1 [Example 41, (R)—N-hydroxy-4-methyl-2-((4-(methylsulfonamido)-N-(pyridin-3-ylmethyl)phenyl)sulfonamido) pentanamide]	4.62
C[C@H](C(=O)NO)N(CCc1ccccc1)S(=O)(=O)c1ccc(O)cc1 [Example 105]	7.05
Cc1cccc(CN([C@H](Cc2cccs2)C(=O)NO)S(=O)(=O)c2ccc(O)cc2)c1 [Example 84]	6.31
CC(C)C[C@H](C(=O)NO)N(Cc1cccnc1)S(=O)(=O)c1ccc(C(N)=O)cc1 [Example 46]	5.21
O=C(NO)[C@@H](CC(F)F)N(Cc1cccnc1)S(=O)(=O)c1ccc(O)cc1 [Example 48]	4.84
CC(C)[C@@H](C(=O)NO)N(Cc1ccccc1)S(=O)(=O)c1ccc(O)c(F)c1 [Example 68]	4.30
CSCC[C@H](C(=O)NO)N(CCc1ccccc1)S(=O)(=O)c1ccc(O)cc1 [Example 92]	7.00
O=C(NO)[C@@H](Cc1cccs1)N(Cc1ccc(OC(F)F)cc1)S(=O)(=O)c1ccc(O)cc1 [Example 98]	5.86
CC(C)C[C@H](C(=O)NO)N(Cc1cccnc1)S(=O)(=O)c1ccc(C(C)O)cc1 (some centres unmarked) [Example 37]	4.30
CC[C@H](C(=O)NO)N(Cc1cccnc1)S(=O)(=O)c1ccc(O)c(Cl)c1 [Example 59]	5.37
CC(C)C[C@H](C(=O)NO)N(Cc1cccnc1)S(=O)(=O)c1ccc(N)cc1 [Example 43]	5.52
CC(C)[C@H](C(=O)NO)N(Cc1cccnc1)S(=O)(=O)c1ccsc1 [Example 76]	5.00
CC(C)C[C@H](C(=O)NO)N(Cc1cccnc1)S(=O)(=O)c1ccc(-c2nnn[nH]2)cc1 [Example 51]	< 3.70
CC(C)C[C@H](C(=O)NO)N(Cc1cccnc1)S(=O)(=O)c1ccc(NC=O)cc1 [Example 49, (R)-2-((4-formamido-N-(pyridin-3-ylmethyl)phenyl)-sulfonamido)-N-hydroxy-4-methyl pentanamide]	5.09
CC[C@H](C(=O)NO)N(Cc1cccnc1)S(=O)(=O)c1ccc(O)c(F)c1 [Example 58]	6.29
COc1ccc(S(=O)(=O)N(Cc2ccccc2)[C@H](C(=O)NO)C(C)C)cc1F [Example 65]	4.55
Cc1ccc(CN([C@H](Cc2cccs2)C(=O)NO)S(=O)(=O)c2ccc(O)cc2)cc1 [Example 90]	6.63
CC(C)C[C@H](C(=O)NN)N(Cc1cccnc1)S(=O)(=O)c1ccc(O)cc1 [Example 34]	4.55
COc1ccc(S(=O)(=O)N(Cc2cccnc2)CC(O)CSC(C)=O)cc1 (centres unmarked) [Example 75]	< 4.00
CCOc1ccc(CN([C@H](Cc2cccs2)C(=O)NO)S(=O)(=O)c2ccc(O)cc2)cc1 [Example 81]	6.25
COCC[C@H](C(=O)NO)N(Cc1cccnc1)S(=O)(=O)c1ccc(O)cc1 [Example 54]	6.40

These compounds were tested against Gelatinase E (GelE) (Enterococcus faecalis (strain ATCC 700802 / V583), UniProt Q833V7) (assay: Gelatinase E activity assay (FRET peptide substrate)). Conditions: Table 11.
Format: biochemical
Procedure: Gelatinase E (Gel E) was purified from bacterial culture supernatant from E. faecalis. E. faecalis was cultured aerobically in Todd Hewitt Broth overnight at 37° C. Nucleic acid was precipitated with 0.9% protamine solution, followed by protein precipitation with ammonium sulfate. Resuspended protein pellet was further subjected to purification using FPLC (phenyl Sepharose column). Fractions with gelatinase activity as determined by casein agar assay were pooled and further concentrated.
Different concentrations of test compound were incubated with purified GelE and FRET-based peptide substrate (390 MMP FRET Substrate 1; Anaspec AS-27077) in assay buffer at room temperature for 30 minutes. The fluorescence signal was determined by a plate reader.

Sequence of Gelatinase E (GelE) (Q833V7 193-510 limits assumed): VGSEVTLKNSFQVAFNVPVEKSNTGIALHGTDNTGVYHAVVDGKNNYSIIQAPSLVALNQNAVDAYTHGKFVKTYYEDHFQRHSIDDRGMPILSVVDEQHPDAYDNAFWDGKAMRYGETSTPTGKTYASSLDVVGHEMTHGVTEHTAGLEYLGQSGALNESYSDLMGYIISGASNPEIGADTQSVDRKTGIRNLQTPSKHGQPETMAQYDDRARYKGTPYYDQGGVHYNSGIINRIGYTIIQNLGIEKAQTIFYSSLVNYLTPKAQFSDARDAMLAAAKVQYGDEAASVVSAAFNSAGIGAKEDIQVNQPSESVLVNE

Structure (SMILES)	pIC50
CC(C)CN(CC(=O)NO)S(=O)(=O)c1ccc(OCC(=O)NCc2ccccc2)cc1 [B]	6.89
CC(C)CN(CC(=O)NO)S(=O)(=O)c1ccc(OCCCF)cc1 [AB]	5.62
Cc1ccccc1CNC(=O)COc1ccc(S(=O)(=O)N(CC(=O)NO)CC(C)C)cc1 [AL]	6.66
CC(C)CN(CC(=O)NO)S(=O)(=O)c1ccc(OCC(=O)NCc2ccsc2)cc1 [AC]	6.86
CC(C)CN(CC(=O)NO)S(=O)(=O)c1ccc(OCC(F)F)cc1 [X]	6.74
C=CCOc1ccc(S(=O)(=O)N(CC(=O)NO)CC(C)C)cc1 [R]	5.62
CSc1cccc(CNC(=O)COc2ccc(S(=O)(=O)N(CC(=O)NO)CC(C)C)cc2)c1 [AQ]	6.92
CC(C)CN(CC(=O)NO)S(=O)(=O)c1ccc(OCC(=O)NCc2ccc(C(F)(F)F)cc2)cc1 [AH]	6.62
CC(C)CN(CC(=O)NO)S(=O)(=O)c1ccc(OCC(=O)NCc2ccccn2)cc1 [AP]	6.75
CC(C)CN(CC(=O)NO)S(=O)(=O)c1ccc(OCC(=O)NC(C)c2ccccc2)cc1 (centres unmarked) [AR]	6.63
Cc1cccc(CNC(=O)COc2ccc(S(=O)(=O)N(CC(=O)NO)CC(C)C)cc2)c1 [AK]	< 5.00
COc1ccc(CNC(=O)COc2ccc(S(=O)(=O)N(CC(=O)NO)CC(C)C)cc2)cc1 [AE]	6.81
CC(C)CN(CC(=O)NO)S(=O)(=O)c1ccc(OCC(=O)NCc2cc(F)cc(F)c2)cc1 [AO]	< 5.00
CC(C)CN(CC(=O)NO)S(=O)(=O)c1ccc(OCC(=O)NCc2cccc(Cl)c2)cc1 [AG, N-(3-chlorobenzyl)-2-(4-(N-(2-(hydroxyamino)-2-oxoethyl)-N-isobutylsulfamoyl)phenoxy)acetamide]	6.99
CC(C)CN(CC(=O)NO)S(=O)(=O)c1ccc(OCC(=O)NCc2ccc(F)cc2)cc1 [AJ]	6.50
COc1ccc(-n2ccc(CCC(=O)NO)n2)cc1 [V]	4.90
COCCN(CC(=O)NO)S(=O)(=O)c1ccc(OC)cc1 [Y]	5.17
CC(C)CN(CC(=O)NO)S(=O)(=O)c1ccc(OCC(=O)NCc2cccc(C(F)(F)F)c2)cc1 [AF]	6.95
CC(C)CN(CC(=O)NO)S(=O)(=O)c1ccc(Oc2ccccc2)cc1 [AA]	5.77
Cc1ccc(CNC(=O)COc2ccc(S(=O)(=O)N(CC(=O)NO)CC(C)C)cc2)cc1 [AD]	6.81
CC(C)CN(CC(=O)NO)S(=O)(=O)c1ccc(OCCF)cc1 [Z]	6.61
CC(C)CN(CC(=O)NO)S(=O)(=O)c1ccc(OCC(=O)NCc2cccc(F)c2)cc1 [AN]	6.80
CC(C)CN(CC(=O)NO)S(=O)(=O)c1ccc(OCC(=O)NCc2ccc(Cl)cc2)cc1 [AI]	6.79
COc1ccc(S(=O)(=O)N(CC(=O)NO)Cc2ccccc2)cc1 [S]	6.69
